Laboratory results from US12428623B2, “Generation of midbrain-specific organoids from human pluripotent stem cells” (AGENCY FOR SCIENCE, TECHNOLOGY AND RESEARCH, priority 2016, dated 2025).

Columns and labels:
Format in all cases: cell-based
[1] = tested on: neuron inside a human midbrain-like organoid; test: Whole cell patch clamp recording of spontaneous postsynaptic currents in hMLO neurons; settings: for spontaneous excitatory postsynaptic currents (sEPSCs): neuron inside hMLO at day 80, CNQX and AP5 applied together (FIG. 4F, recording 2)
Experimental: Whole cell patch clamp recording techniques were used to measure the intrinsic properties of neurons within human midbrain-like organoids. Each human midbrain-like organoid was placed in a chamber and submerged beneath continuously perfused artificial CSF (aCSF) saturated with 95% O2 and 5% CO2 at 30 to 32° C. Patch pipettes (2 to 4 MΩ) were filled with an intracellular solution containing (in mM): Potassium methanesulfonate 135, KCl 10, HEPES 10, EGTA 1 Na2ATP 2; 290 mOsm; pH was adjusted to between 7.2 to 7.4 with KOH. Whole cell recordings were performed using IR-DIC visualization techniques with an Olympus BX51WI upright microscope, using a ×60 water immersion lens. Signals were recorded using an MultiClamp 700B amplifier, filtered at 3 kHz using a Bessel filter, and digitized at 10 kHz with a Digidata 1322A analog-to-digital (A/D) board (Molecular Devices, Sunnyvale, CA). To measure Na^+ currents and K^+ currents, voltage steps (500 msec duration) were applied from a holding potential of −70 mV to a range of test potentials between −50 and +90 mV (10 mV increments). For excitability test, a series of current pulses (500 msec) of increasing amplitude (5 pA steps) were injected to make the current-firing frequency relationship. Spontaneous excitatory postsynaptic currents (sEPSCs) were collected at a holding potential of −70 mV. Evoked excitatory postsynaptic currents (eEPSCs) was induced by tungsten wire electrodes placed about 300 μm away from the recording neuron within the hMLO.

[2] = tested on: human midbrain-like organoids (hMLOs); test: Neuromelanin-like granule formation in human midbrain-like organoids (bright field, Fontana-Masson staining); settings: for formation of neuromelanin-like granules: 50 μM treatment, bright field images and Fontana-Masson stained sections (FIG. 3G)
Experimental: For generation of human midbrain-like organoids, human embryonic stem cell lines were used at less than 40 passages. The human embryonic stem cells were dissociated from intact colonies to single cells with TrypLE Express (Life Technologies), and 10,000 cells were plated in each well of low-cell-adhesion 96-well culture plate with V-bottomed conical wells (Sumitomo Bakelite) to form uniform EBs in neuronal induction medium containing DMEM/F12:Neurobasal (1:1), 1:100 N2 supplement (Invitrogen), 1:50 B27 without vitamin A (Invitrogen), 1% GlutaMAX (Invitrogen), 1% minimum essential media-nonessential amino acid (Invitrogen), and 0.1% β-mercaptoethanol (Invitrogen) supplemented with 1 μg/ml Heparin (Sigma-Aldrich), 10 μM SB431542 (Stemgent), 200 ng/ml Noggin (Prospec), 0.8 μM CHIR99021 (Reagents Direct), and 10 μM ROCK inhibitor Y27632 (Calbiochem). ROCK inhibitor was added for the first 48 hours and neuronal induction medium was changed on day 2. On day 4, human midbrain-like organoids were cultured with addition of 100 ng/ml SHH-C25II (R&D Systems) and 100 ng/ml FGF8 (R&D Systems) for midbrain patterning. After 3 days, the human midbrain-like organoids started to extrude neuroectodermal buds, media were completely removed and immediately 30 μl of growth factor reduced matrigel was added in each well by pipetting using pre-chilled 200 μl pipette tip. The matrigel embedded midbrain-like organoid was placed into 37° C. incubator for 30 minutes to allow the matrigel to solidify, and was grown in tissue growth induction medium containing Neurobasal, 1:100 N2 supplement (Invitrogen), 1:50 B27 without vitamin A (Invitrogen), 1% GlutaMAX (Invitrogen), 1% minimum essential media-nonessential amino acid (Invitrogen), and 0.1% β-mercaptoethanol (Invitrogen) supplemented with 2.5 μg/ml Insulin (Sigma-Aldrich), 200 ng/ml Laminin (Sigma-Aldrich), 100 ng/ml SHH-C25II (R&D Systems), and 100 ng/ml FGF8 (R&D Systems) for 24 h. […]

[3] = tested on: human cerebral organoids (hCOs); test: Neuromelanin-like granule formation in human cerebral organoids; settings: 50 μM for 10 days; human cerebral organoids (FIG. 7G)
Experimental: Human midbrain-like organoids were fixed in 4% paraformaldehyde (PFA) overnight, washed in PBS, embedded in paraffin block, and subsequently sectioned at 4 μm thickness. Next, hMLOsections were deparaffinized, hydrated with distilled water, and stained by Fontana-Masson staining kit (Abcam) according to manufacturer's protocol ([…] et al., 2011). Briefly, the sections were placed in ammoniacal silver solution and incubated in a 58 to 60° C. water bath for 30 to 60 minutes until the tissue sections had become yellowish/brown in colour. The tissue sections were washed with distilled water and incubated in gold chloride solution (0.2%) for 30 seconds. Next, the sections were incubated in gold chloride solution (0.2%) for 30 seconds and subsequently incubated with sodium thiosulfate solution (5%) for 2 minutes. Finally, the sections were incubated in nuclear fast red solution for 5 minutes for staining and mounting. Images were taken on an LSM710 confocal microscope or an Observer Z. 1 inverted microscope (Zeiss).

`NC(CCCP(=O)(O)O)C(=O)O` (stereo not shown) [AP5] was tested, and the “spontaneous excitatory postsynaptic currents (sEPSCs)” value [1] was “blocked”.
`N[C@@H](Cc1ccc(O)c(O)c1)C(=O)O` [L-DOPA, L-3,4-dihydroxyphenylalanine] was tested, and the “formation of neuromelanin-like granules” value [2] was “accelerated”, the “distribution of neuromelanin-like granules” value ([2]; L-DOPA 50 μM, hMLO at day 35, untreated hMLO at the same day showed none) was “robust distribution of neuromelanin-like granules was observed” and the “neuromelanin (NM)-like granules or coloured deposits” value [3] was “did not show any neuromelanin (NM)-like granules”.
`NCCc1ccc(O)c(O)c1` [dopamine, 3,4-dihydroxyphenethylamine] was tested, and the “formation of neuromelanin-like granules” value [2] was “accelerated”.
picrotoxin was tested, and the “spontaneous inhibitory postsynaptic currents (sIPSCs)” value ([1]; neuron inside hMLO at day 80 (FIG. 4F, recording 3)) was “blocked”.
For `N#Cc1cc2[nH]c(=O)c(=O)[nH]c2cc1[N+](=O)[O-]` [CNQX], the “spontaneous excitatory postsynaptic currents (sEPSCs)” value [1] was “blocked”.
